Test system in one data set: not given
Experiment: not given
The note with it: human absorption data, common drugs; cited from earlier work.
Consider `CCN1CCCC1CNC(=O)c1cc(S(N)(=O)=O)ccc1OC` (centres unmarked) [sulpiride], for which the “% FA” value is on record as 36%.

With `OC[C@H]1O[C@H](OC[C@H]2O[C@H](O[C@]3(CO)O[C@H](CO)[C@@H](O)[C@@H]3O)[C@H](O)[C@@H](O)[C@@H]2O)[C@H](O)[C@@H](O)[C@H]1O` [raffinose], the “% FA” value was 0.3%.

With `C=CCOc1ccccc1OCC(O)CNC(C)C` (centres unmarked) [oxprenolol], the “% FA” value is on record as 97%.

As for `Cc1ccccc1N1C(=O)c2cc(S(N)(=O)=O)c(Cl)cc2NC1C` (centres unmarked) [metolazone], the “% FA” value is 64%.

Regarding `CC(C)NCC(O)COc1cccc2[nH]ccc12` (centres unmarked) [pindolol], the “% FA” value is given as 92%.

For the compound `OC[C@H]1O[C@@H](O[C@@H]2[C@@H](CO)OC(O)(CO)[C@H]2O)[C@H](O)[C@@H](O)[C@H]1O` (mixture of isomers) [lactulose], the “% FA” value is given as 0.6%.

Consider `O=C(O)P(=O)(O)O` [foscarnet], for which the “% FA” value is listed as 17%.

On to `NC[C@H]1CC[C@H](C(=O)O)CC1` [tranexamic acid], for which the “% FA” value is 55%.

As to `C=CCc1ccccc1OCC(O)CNC(C)C` (centres unmarked) [alprenolol], the “% FA” value was 96%.

Take `OC[C@@H](O)[C@@H](O)[C@H](O)[C@H](O)CO` [mannitol]: the “% FA” value is listed as 26%.

In the case of `CC(=O)Nc1ccc(OCC(O)CNC(C)C)cc1` (centres unmarked) [practolol], the “% FA” value was 95%.

With `O=C(O)c1cc(/N=N/c2ccc(O)c(C(=O)O)c2)ccc1O` [olsalazine], the “% FA” value was 2.3%.

As to `O=C(O)c1cc(/N=N/c2ccc(S(=O)(=O)Nc3ccccn3)cc2)ccc1O` [sulfasalazine], the “% FA” value was 12%.

In a further data set the target is T1, rat NaP2b (SLC34A2) (Rattus norvegicus, UniProt Q9JJ09).
T1 construct: host or cells: HEK293
T1 sequence (Q9JJ09 1-695): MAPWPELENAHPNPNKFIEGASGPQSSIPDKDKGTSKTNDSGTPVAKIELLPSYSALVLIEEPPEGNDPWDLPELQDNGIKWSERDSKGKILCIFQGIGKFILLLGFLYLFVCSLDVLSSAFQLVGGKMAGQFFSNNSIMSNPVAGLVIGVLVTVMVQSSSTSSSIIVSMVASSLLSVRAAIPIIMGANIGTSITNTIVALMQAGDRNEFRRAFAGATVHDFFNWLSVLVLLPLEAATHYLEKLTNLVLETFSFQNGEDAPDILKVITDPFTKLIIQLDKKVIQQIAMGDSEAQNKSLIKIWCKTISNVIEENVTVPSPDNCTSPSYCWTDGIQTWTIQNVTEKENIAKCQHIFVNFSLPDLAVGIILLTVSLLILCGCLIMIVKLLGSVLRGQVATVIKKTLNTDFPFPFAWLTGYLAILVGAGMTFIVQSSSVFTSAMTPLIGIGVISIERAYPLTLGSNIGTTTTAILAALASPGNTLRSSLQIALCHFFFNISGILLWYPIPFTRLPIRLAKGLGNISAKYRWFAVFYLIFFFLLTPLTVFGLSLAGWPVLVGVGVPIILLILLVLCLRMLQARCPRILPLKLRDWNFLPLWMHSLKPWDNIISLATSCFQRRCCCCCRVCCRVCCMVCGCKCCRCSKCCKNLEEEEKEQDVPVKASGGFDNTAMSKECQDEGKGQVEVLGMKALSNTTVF
In words: NaP2b-mediated Pi transport (33P uptake) in transfected HEK293 cells, rat NaP2b. The note with it: Structure (III) examples, Table 2; HEK293, 0.1 mM phosphate; read-out: pIC50 range for rat Nap2b (converted). The data set is classed as cell-based. The protocol: HEK293 cells were obtained from the American Type Culture collection and propagated per their instructions. Expression clones for rat and human NaP2b (SLC34A2) were obtained from Open Biosystems (Catalog numbers MRN1768-9510282, and MHS1010-99823026, respectively). The sequence of the human protein was mutated to insert a threonine after residue 37, and to introduce a N39D mutation.
The rate of phosphate (Pi) uptake into HEK293 cells was measured using a modification of the method described by Mohrmann et al. (Mohrmann, I., Mohrmann, M., Biber, J., and Murer, H. (1986) Am. J. Phys. 250(3 Pt 1):G323-30.) Transfected HEK293 cells were treated with a pharmacological agent to minimize endogenous PiT-mediated phosphate transport activity, such that the only remaining sodium-dependent phosphate transport activity is that which was bestowed by introduction of the NaP2b genes.
(§1) Cells were seeded into 96-well plates at 25,000 cells/well and cultured overnight. Lipofectamine 2000 (Invitrogen) was used to introduce the NaP2b cDNA, and the cells were allowed to approach confluence during a second overnight incubation. […] Cells were then overlayed with either choline uptake buffer or sodium uptake buffer (14 mM Tris, 137 mM sodium chloride, 5.4 mM KCl, 2.8 mM CaCl2, 1.2 mM MgSO4, 100 uM KH2PO4, PiT-silencing agent, 1 mg/mL Bovine Serum Albumin, pH 7.4) containing 6-9 uCi/mL ^33P orthophosphoric acid (Perkin Elmer) and test compound. Each compound was tested at twelve concentrations ranging from 0.1 nM to 30 uM. Assays were run in duplicate.
After incubation for 3-30 minutes at room temperature, assay mixtures were removed, and the cells were washed twice with ice cold stop solution (137 mM sodium chloride, 14 mM Tris, pH 7.4). Cells were lysed by addition of 20 μL 0.1% Tween 80 followed by 100 μL scintillation fluid, and counted using a TopCount (Perkin Elmer).
pIC50 (the negative log of the IC50) values of the test compounds were calculated using GraphPad Prism.
HEK293 cells were obtained from the American Type Culture collection and propagated per their instructions. Expression clones for rat and mouse NaP2b (SLC34A2) cDNAs were obtained from Open Biosystems (Catalog numbers MRN1768-9510282 and MMM1013-98478398 respectively).
The rate of phosphate uptake into HEK293 cells was measured using a modification of the method described by Mohrmann et al. (Mohrmann, I., Mohrmann, M., Biber, J., and Murer, H. (1986) Am. J. Phys. 250(3 Pt 1):G323-30.) Transfected HEK293 cells were treated with a pharmacological agent to minimize endogenous PiT-mediated phosphate transport activity, such that the only remaining sodium-dependent phosphate transport activity is that which was bestowed by introduction of the NaP2b genes.
as §1, with “agent, 0.1% wt/v bovine serum albumin,” for “agent, 1 mg/mL Bovine Serum Albumin,”, “Each compounds” for “Each compound”
After incubation for 3-30 minutes at room temperature, assay mixtures were removed, and the cells were washed twice with ice cold stop solution (137 mM sodium chloride, 14 mM Tris, pH 7.4).
Turning to `O=C(O)CCSCc1cccc(C(=O)Nc2ccc(N3CCCCC3)cc2C(=O)Nc2cnc(-c3cccc(C(F)(F)F)c3)cn2)c1` [Example 12], the IC50 was 1000 to 7940 nM.

The data set is the same for the next values; noted with them: Structure (V) examples, Table 2; rat NaP2b, HEK293; read-out: pIC50 Range (converted).
In the case of `[N-]=[N+]=NCCOCCOCCOCCNCc1cccc(C(=O)Nc2ccc(N3CCCCC3)cc2C(=O)N/N=C/c2ccc(Cl)c(C(F)(F)F)c2)c1` [Ex. 32], the IC50 is 100 to 794 nM.

Regarding `O=C(Nc1ccc(N2CCCCC2)cc1C(=O)N/N=C/c1ccc(Cl)c(C(F)(F)F)c1)c1cccc(Cn2cc(CCCP(=O)(O)O)nn2)c1` [Example 26], the IC50 was 10000 to 100000 nM.

As for `O=C(Nc1ccc(N2CCCCC2)cc1C(=O)N/N=C/c1ccc(Cl)c(C(F)(F)F)c1)c1cccc(Cc2nc(CCO)cs2)c1` [Ex. 45, (E)-N-(2-(2-(4-chloro-3-(trifluoromethyl)benzylidene)hydrazine-carbonyl)-4-(piperidin-1-yl)phenyl)-3-((4-(2-hydroxyethyl)thiazol-2-yl)methyl)benzamide], the IC50 was 100 to 794 nM.

Take `NC(Cc1cn(Cc2cccc(C(=O)Nc3ccc(N4CCCCC4)cc3C(=O)N/N=C/c3ccc(Cl)c(C(F)(F)F)c3)c2)nn1)C(=O)O` (centres unmarked) [Example 11]: the IC50 is 1000 to 7940 nM.

As to `[N-]=[N+]=NCCOCCOCCOCCNC(=O)C1CCN(Cc2cccc(C(=O)Nc3ccc(N4CCCCC4)cc3C(=O)N/N=C/c3ccc(Cl)c(C(F)(F)F)c3)c2)CC1` [Ex. 34], the IC50 is 100 to 794 nM.

For `CC(=O)N[C@@H](CCCCNC(=O)CCSCc1cccc(C(=O)Nc2ccc(N3CCCCC3)cc2C(=O)N/N=C/c2ccc(Cl)c(C(F)(F)F)c2)c1)C(=O)O` [Ex. 35], the IC50 is 1000 to 7940 nM.

With `O=C(CCSCc1cccc(C(=O)Nc2ccc(N3CCCCC3)cc2C(=O)N/N=C/c2ccc(Cl)c(C(F)(F)F)c2)c1)Nc1ccc(B(O)O)cc1` [Ex. 46, (E)-4-(3-(3-(2-(2-(4-chloro-3-(trifluoromethyl)benzylidene)hydrazinecarbonyl)-4-(piperidin-1-yl)phenylcarbamoyl)benzylthio)propanamido)phenylboronic acid], the IC50 is 100 to 794 nM.

Consider `[N-]=[N+]=NCCOCCOCCOCCNC(=O)CCSCc1cccc(C(=O)Nc2ccc(N3CCCCC3)cc2C(=O)N/N=C/c2ccc(Cl)c(C(F)(F)F)c2)c1` [Ex. 33], for which the IC50 is 100 to 794 nM.

On to `NCCOCCOCCOCCc1cn(Cc2cccc(C(=O)Nc3ccc(N4CCCCC4)cc3C(=O)N/N=C/c3ccc(Cl)c(C(F)(F)F)c3)c2)nn1` [Example 25], for which the IC50 is 1000 to 7940 nM.

Consider `O=C(Nc1ccc(N2CCCCC2)cc1C(=O)N/N=C/c1ccc(Cl)c(C(F)(F)F)c1)c1cccc(Cn2cc(CO)nn2)c1` [Example 8], for which the IC50 was 100 to 794 nM.

In the case of `O=C(O)c1ccc(-c2cn(Cc3cccc(C(=O)Nc4ccc(N5CCCCC5)cc4C(=O)N/N=C/c4ccc(Cl)c(C(F)(F)F)c4)c3)nn2)cc1` [Example 12], the IC50 is 100 to 794 nM.

`O=C(CCOCCOCCOCCOCCOCCOCCOCCOCCSCc1cccc(C(=O)Nc2ccc(N3CCCCC3)cc2C(=O)N/N=C/c2ccc(Cl)c(C(F)(F)F)c2)c1)N[C@H]1C(O)O[C@H](CO)[C@@H](O)[C@@H]1O` (some centres unmarked) [Ex. 28]: the IC50 is 10000 to 100000 nM.

As for `O=C(Nc1ccc(N2CCCCC2)cc1C(=O)N/N=C/c1ccc(Cl)c(C(F)(F)F)c1)c1cccc(C#CCCO)c1` [Ex. 31], the IC50 was 10 to 79.4 nM.

Regarding `O=C(O)CCOCCOCCOCCOCCOCCOCCOCCOCCSCc1cccc(C(=O)Nc2ccc(Cl)cc2C(=O)N/N=C/c2ccc(Cl)c(C(F)(F)F)c2)c1` [Ex. 29], the IC50 was 100 to 794 nM.

As for `O=C(Nc1ccc(N2CCCCC2)cc1C(=O)N/N=C/c1ccc(Cl)c(C(F)(F)F)c1)c1cccc(Cn2cc(CCOCCOCCOCCNC(=O)C(O)C(O)C(=O)O)nn2)c1` (centres unmarked) [Ex. 27], the IC50 was 10000 to 100000 nM.

For the compound `NCc1cn(Cc2cccc(C(=O)Nc3ccc(N4CCCCC4)cc3C(=O)N/N=C/c3ccc(Cl)c(C(F)(F)F)c3)c2)nn1` [Example 10], the IC50 was 1000 to 7940 nM.

Turning to `COCCNC(=O)CC[S+]([O-])Cc1cccc(C(=O)Nc2ccc(N3CCCCC3)cc2C(=O)N/N=C/c2ccc(Cl)c(C(F)(F)F)c2)c1` (centres unmarked) [Ex. 51, (E)-N-(2-(2-(4-chloro-3-(trifluoromethyl)benzylidene)hydrazinecarbonyl)-4-(piperidin-1-yl)phenyl)-3-((3-(2-methoxyethylamino)-3-oxopropylsulfinyl)methyl)benzamide], the IC50 was 100 to 794 nM.

In the case of `O=C(Nc1ccc(Cl)cc1C(=O)N/N=C/c1ccc(Cl)c(C(F)(F)F)c1)c1cccc(Cn2cc(CCO)nn2)c1` [Ex. 30], the IC50 is 10 to 79.4 nM.
